Experimental data published in PMC5355811 (Nature Communications, 2017).
Like-named read-outs stand apart in the source and are kept apart here.

How the values were obtained:
PC9 parent cells (del19) = assay: CellTiter-Glo cell viability assay, PC9 parent; assay type: cell-based; conditions: read-out: IC50, PC9 parent
Procedure: (§1) Three-day cell viability assays were carried out by plating 2,000, 1,500 and 2,000 cells per well of Ba/F3, PC9 or MGH121, respectively, into black transparent-bottom 96-well plates. On the same day for Ba/F3 cells and the following day for PC9 and MGH121 cells, the cells were treated with each TKI across a 10-dose range from 0.3 nmol l^−1 to 10 μmol l^−1. After 72 h of drug treatment, cell viability was measured using the CellTiter-Glo assay (Promega).

[1] = tested on: PC9 T790M cells (T790M/del19); assay: CellTiter-Glo cell viability assay, PC9 T790M; assay type: cell-based; conditions: read-out: IC50, PC9 T790M
Procedure: as §1

[2] = tested on: PC9 triple-mutant cells (C797S/T790M/del19); assay: CellTiter-Glo cell viability assay, PC9 triple mutant; assay type: cell-based; conditions: read-out: IC50, PC9 triple
Procedure: as §1

[3] = tested on: MGH121 parental cells (T790M/del19); assay: cells; assay type: cell-based; conditions: Homo sapiens, read-out: IC50, MGH121-pt
Procedure: as §1

[4] = tested on: MGH121-res2 cells (C797S/T790M/del19); assay: cells; assay type: cell-based; conditions: Homo sapiens, read-out: IC50, MGH121-res2
Procedure: as §1

[5] = tested on: Ba/F3 cells of EGFR-del19; assay: Drug sensitivity screening at 100 nM, Ba/F3 EGFR-del19; assay type: cell-based; conditions: Mus musculus, BaF3, 72 h, read-out: Relative cell viability (ratio to DMSO control), del19
Procedure: (§2) After the incubation, cell viability was measured using CellTiter-Glo assay. The relative cell viability was calculated as a ratio of each value to that of the DMSO control.

[6] = tested on: Ba/F3 cells of EGFR-T790M/del19; assay: Drug sensitivity screening at 100 nM, Ba/F3 EGFR-T790M/del19; assay type: cell-based; conditions: Mus musculus, BaF3, 72 h, read-out: Relative cell viability (ratio to DMSO control), del19/T790M
Procedure: as §2

[7] = tested on: phosphorylation of EGFR in Ba/F3 cells expressing EGFR-C797S/T790M/del19; assay: Western blotting of EGFR signalling, Ba/F3 triple-del19; assay type: cell-based; conditions: 6 h
Procedure: (§3) Tumour tissues or cells grown under the specified conditions were washed with cold PBS before addition of the SDS lysis buffer (100 mM Tris, 1% SDS, 10% glycerol). Lysates were transferred to microtubes, boiled for 5 min at 100 °C and then vortexed. Protein quantification was performed using the BCA Protein Assay Reagent (Pierce) according to the manufacturer's protocol. Western blot analyses were conducted after separation by SDS-PAGE and transferred to polyvinylidene difluoride membranes.

[8] = tested on: EGFR phosphorylation in PC9 triple-mutant cells; assay: Western blotting of EGFR signalling, PC9 triple mutant; assay type: cell-based
Procedure: as §3

[9] = tested on: PC9-T790M (T790M/del19) xenograft; assay: PC9-T790M xenograft; assay type: in vivo, Balb-c nu/nu mice; conditions: osimertinib 50 mg kg^−1, brigatinib 75 mg kg^−1
Procedure: (§4) Tumour growth was monitored twice weekly by bilateral caliper measurement, and tumour volume was calculated as 0.5 × length × width × width (mm^3). […] The mice whose implanted tumour size was ranked in the top 5% and bottom 5% were excluded from randomization to minimize the variation of tumour sizes. The mice were treated once daily by oral gavage for the indicated period. Relative tumour volume was calculated by dividing by the tumour volume on day 0. The body weights of the mice were measured twice weekly. Implanted tumours were resected from the mice on day 15 of drug treatment and were fixed with formalin. The mice were euthanized when the tumour size exceeded 700 mm^3 within several days. The investigators performing tumour measurements were not blinded to treatment groups. The sample size (minimum n=6 per treatment group) was selected to ensure satisfactory inter-animal reproducibility. The Mann–Whitney U test was used for the statistical analysis of the mice experiments.

[10] = tested on: PC9-triple mutant (C797S/T790M/del19) xenograft; conditions: for tumour growth, PC9 triple-mutant xenograft: osimertinib 50 mg kg^−1, brigatinib 75 mg kg^−1 once daily oral, cetuximab 1 mg per mouse three times a week, panitumumab 0.5 mg per mouse two times a week
Procedure: as §4

confirmed EGFR T790M = tested on: confirmed EGFR T790M; design: method as in PMID 25923549; conditions: 127 patients with confirmed EGFR T790M, phase 1/2 trial; cited from earlier work
[11] = tested on: Ba/F3 cells expressing EGFR-del19; assay: CellTiter-Glo cell viability assay, Ba/F3 EGFR-del19; assay type: cell-based; conditions: Mus musculus
Procedure: as §1

[12] = tested on: Ba/F3 cells expressing EGFR-T790M/del19; assay: CellTiter-Glo cell viability assay, Ba/F3 EGFR-T790M/del19; assay type: cell-based; conditions: Mus musculus
Procedure: as §1

[13] = tested on: Ba/F3 cells expressing EGFR-L858R; assay: CellTiter-Glo cell viability assay, Ba/F3 EGFR-L858R; assay type: cell-based; conditions: read-out: IC50, Ba/F3 L858R
Procedure: as §1

[14] = tested on: Ba/F3 cells of EGFR-C797S/T790M/del19; assay: Drug sensitivity screening at 100 nM, Ba/F3 EGFR-C797S/T790M/del19; assay type: cell-based; conditions: Mus musculus
Procedure: as §2

[15] = tested on: A431, A549 and H460 cells; assay: CellTiter-Glo cell viability assay, non-EGFR-mutated cell lines; assay type: cell-based; conditions: A431 (EGFR amplification), A549 and H460 (KRAS mutation); 72 h
[16] = tested on: MGH121-res2 (C797S/T790M/del19) xenograft; assay: MGH121-res2 xenograft; assay type: in vivo; conditions: brigatinib 75 mg kg^−1 po; cetuximab 1 mg per mouse two times a week
Procedure: (a,b) MGH121-res2 expressing EGFR-C797S/T790M/del19 were subcutaneously implanted into SCID-beige mice. […] Tumour volume (V) was calculated as 0.5 × length × width^2, and the body weights (B.W.) of the mice were measured twice weekly. N=6. Results are expressed as mean±s.d.

[17] = tested on: cell surface EGFR in PC9 triple-mutant cells; assay: Flow cytometry of cell surface EGFR; assay type: cell-based; conditions: 0, 6, 24 and 48 h
EGFR-C797S/T790M/L858R = EGFR-C797S/T790M/L858R (Homo sapiens, UniProt P00533, C797S/L858R/T790M); conditions: inhibition curves shifted with ATP concentration, triple-mutant and wild-type EGFR
Procedure: The appropriate amount of target proteins calculated on the basis of the ADP-Glo assay manufacturer's protocol was incubated in 96-well half area white plates with serially diluted inhibitor over a 10-dose range from 0.0002, nM to 10 μM for 10 min at room temperature. ATP at concentration of 1, 10, 100 and 1,000 nM was mixed with 100 μg ml^−1 substrate and added to a kinase protein–inhibitor mixture, and then incubated for 60 min at room temperature. After the kinase reaction, an equal volume of ADP-Glo Reagent was added to terminate the kinase reaction, and the remaining ATP was depleted. The Kinase Detection Reagent was added both to convert ADP to ATP and to allow the newly synthesized ATP to be measured using the luciferase/luciferin reaction. The light generated was measured using a luminometer.

[18] = 180 mg per day, cited from earlier work
EGFR-mutated lung cancer = conditions: patients with EGFR-mutated lung cancer, phase 1/2 trial; cited from earlier work
[19] = 100 nM inhibitor, 72 h, DMSO = 100, mean of three independent experiments (Fig. 1a data)

Sequence of EGFR-C797S/T790M/L858R (P00533 712-979 T790M/C797S/L858R): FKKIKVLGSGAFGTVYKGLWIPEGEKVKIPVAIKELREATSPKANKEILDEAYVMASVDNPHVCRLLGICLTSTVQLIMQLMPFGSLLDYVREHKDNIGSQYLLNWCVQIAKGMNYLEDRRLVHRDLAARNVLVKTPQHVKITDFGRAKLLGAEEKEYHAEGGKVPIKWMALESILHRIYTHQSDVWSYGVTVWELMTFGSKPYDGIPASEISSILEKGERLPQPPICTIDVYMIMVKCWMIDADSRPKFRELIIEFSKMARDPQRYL

## C=CC(=O)Nc1cc(Nc2nccc(-c3cn(C)c4ccccc34)n2)c(OC)cc1N(C)CCN(C)C [Osimertinib, osimertinib]
PC9 parent cells (del19); Table 1c, EGFR–TKIs, 72 h
  IC50: 7.46 nM
[1]; Table 1c, EGFR–TKIs, 72 h
  IC50: 11.3 nM
[2]; Table 1c, EGFR–TKIs, 72 h
  IC50: 3460 nM
[3]; MGH121, Table 1e, 72 h
  IC50: 2.58 nM
[4]; MGH121, Table 1e, 72 h
  IC50: 7160 nM
[5]
  viability at 0.1 µM: 1.58%
[6]
  viability at 0.1 µM: 7.61%
[7]
  phosphorylation of EGFR and downstream signalling, Ba/F3 triple-del19: lack of inhibition of EGFR phosphorylation
[8]
  EGFR phosphorylation and downstream signalling, PC9 triple-mutant cells: No reduction of the signal pathway
[9]
  tumour growth, T790M/del19-expressing PC9 xenograft: successfully suppressed the growth
[10]
  tumour growth, PC9 triple-mutant xenograft: without any superiority to control group
Confirmed EGFR T790M
  median progression-free survival: 9.6 months
  response rate: 61%

## COc1cc(N2CCC(N3CCN(C)CC3)CC2)ccc1Nc1ncc(Cl)c(Nc2ccccc2P(C)(C)=O)n1 [Brigatinib, brigatinib]
[11]; BaF3, 72 h, read-out: IC50, Ba/F3 Del19
  IC50: 43.7 nM
[11]; BaF3, read-out: IC50, Ba/F3 del19
  IC50: 39.4 nM
[12]; BaF3, 72 h, read-out: IC50, Ba/F3 T790M/del19
  IC50: 150 nM
[12]; BaF3, read-out: IC50, Ba/F3 T790M/del19
  IC50: 120 nM
[13]; Mus musculus, BaF3, 72 h
  IC50: 207 nM
[13]
  IC50: 133 nM
PC9 parent cells (del19)
  IC50: 133 nM
[1]
  IC50: 244 nM
[2]
  IC50: 599 nM
[3]; MGH121, 72 h
  IC50: 155 nM
[4]; MGH121, 72 h
  IC50: 592 nM
[5]; [19]
  viability at 0.1 µM: 10.3%
[6]; [19]
  viability at 0.1 µM: 69.2%
[14]; BaF3, 72 h, 100 nM inhibitor, 72 h, DMSO = 100, mean of three independent experiments (Fig. 1a data)
  viability at 0.1 µM: 59.2%
[14]; BaF3, at 100 nM, read-out: growth inhibition against EGFR-triple-del19
  inhibition at 0.1 µM: ~50%
[7]
  phosphorylation of EGFR and downstream signalling, Ba/F3 triple-del19: decreased phosphorylation of EGFR and its downstream signalling pathway in a dose-dependent manner
[8]
  EGFR phosphorylation and downstream signalling, PC9 triple-mutant cells: inhibited EGFR phosphorylation and its downstream signalling
[15]
  inhibitory activity (IC50) in cell lines without EGFR mutation: less inhibitory activity to the cell lines without EGFR mutation than afatinib and osimertinib
[9]
  tumour growth, T790M/del19-expressing PC9 xenograft: successfully suppressed the growth
[16]
  tumour growth, MGH121-res2 xenograft: growth inhibition effect
[17]
  cell surface EGFR level: no reduction
EGFR-C797S/T790M/L858R
  mode of EGFR kinase inhibition: competitively affected the ATP-binding site of the EGFR kinase domain
[10]; body weight, brigatinib 75 mg kg^−1 daily, with or without cetuximab
  toxicity, PC9 triple-mutant xenograft-bearing mice: without explicit toxicity
[10]
  tumour growth, PC9 triple-mutant xenograft: significant inhibition of the growth of PC9-triple mutant cells
[10]; western blotting of PC9-triple mutant tumours from mice
  phosphorylation of EGFR and downstream signalling in tumour samples: actually inhibited
[18]; ref 48
  plasma concentration in a steady state: 1,694.3 nM
[18]; ref 49
  plasma concentration in a steady state: 1,447 nM
EGFR-mutated lung cancer
  cases that achieved partial response: two of 42 cases
